Measured values as given in DBAASP.
≈ marks a conversion by molar mass, not a printed value.

Tests used:
Assay in all cases: ≥ marks a high value that may be exact or a test limit, other limits are often not marked, values filed in µg/mL are converted to µM
[1] = test system: Pseudomonas aeruginosa Ps4
[2] = test system: Candida albicans C627
[3] = test system: Enterococcus faecium mic80
[4] = test system: Escherichia coli ESBL 63103
[5] = test system: Pseudomonas aeruginosa 213
[6] = test system: Pseudomonas aeruginosa H103
[7] = test system: Pseudomonas aeruginosa LES400
[8] = test system: Staphylococcus aureus ATCC 25923
[9] = test system: Staphylococcus aureus C623
[10] = test system: Candida albicans MDM8
[11] = test system: Escherichia coli SBS 363
[12] = test system: Micrococcus luteus A270

MIC [1] [µM]	MIC [2] [µM]	MIC [3] [µM]	MIC [4] [µM]	MIC [5] [µM]	MIC [6] [µM]	MIC [7] [µM]	MIC [8] [µM]	MIC [9] [µM]	also measured	SMILES
≥ 155										CC[C@H](C)[C@H](NC(=O)[C@H](CC(N)=O)NC(=O)[C@H](CCCN=C(N)N)NC(=O)[C@H](CCC(N)=O)NC(=O)[C@H](Cc1c[nH]c2ccccc12)NC(=O)[C@H](Cc1ccccc1)NC(=O)[C@@H](N)CS)C(=O)N[C@@H](CCCN=C(N)N)C(=O)N[C@@H](CCCCN)C(=O)N[C@H](C(=O)N[C@@H](CCCN=C(N)N)C(=O)N[C@@H](CS)C(N)=O)C(C)C [CFWQRNIRKVRC]
≥ 182										CC[C@H](C)[C@H](NC(=O)[C@H](CC(N)=O)NC(=O)[C@H](CCCN=C(N)N)NC(=O)[C@@H]1CCCN1C(=O)[C@H](Cc1c[nH]c2ccccc12)NC(=O)[C@@H](N)Cc1ccccc1)C(=O)N[C@@H](CCCN=C(N)N)C(=O)N[C@@H](CCCCN)C(=O)N[C@H](C(=O)N[C@@H](CCCN=C(N)N)C(N)=O)C(C)C [FWPRNIRKVR]
≥ 250										CC[C@H](C)[C@H](NC(=O)[C@H](CC(N)=O)NC(=O)[C@H](CCCN=C(N)N)NC(=O)[C@H](CCC(N)=O)NC(=O)[C@H](Cc1c[nH]c2ccccc12)NC(=O)[C@@H](N)Cc1ccccc1)C(=O)N[C@@H](CCCN=C(N)N)C(=O)N[C@@H](Cc1ccccc1)C(=O)N[C@@H](CCCN=C(N)N)C(=O)N[C@@H](CCCN=C(N)N)C(N)=O [FWQRNIRFRR]
	2.64 (≈ 4 µg/mL)	5.27 (≈ 8 µg/mL)	5.27 (≈ 8 µg/mL)	21.1 (≈ 32 µg/mL)	2.64 (≈ 4 µg/mL)	21.1 (≈ 32 µg/mL)	2.64 (≈ 4 µg/mL)	1.32 (≈ 2 µg/mL)		NCCCC[C@H](NC(=O)[C@@H](N)CCCCN)C(=O)N[C@@H](CCCN=C(N)N)C(=O)N[C@@H](Cc1c[nH]c2ccccc12)C(=O)N[C@@H](Cc1c[nH]c2ccccc12)C(=O)N[C@@H](Cc1c[nH]c2ccccc12)C(=O)N[C@@H](Cc1c[nH]c2ccccc12)C(=O)N[C@@H](Cc1c[nH]c2ccccc12)C(=O)N[C@@H](CCCN=C(N)N)C(=O)O [KKRWWWWWR]
	21.6 (≈ 32 µg/mL)	21.6 (≈ 32 µg/mL)	10.8 (≈ 16 µg/mL)	≥ 86.6	21.6 (≈ 32 µg/mL)	≥ 43.3	21.6 (≈ 32 µg/mL)	10.8 (≈ 16 µg/mL)		NCCCC[C@H](NC(=O)[C@H](Cc1c[nH]c2ccccc12)NC(=O)[C@@H](N)CCCCN)C(=O)N[C@@H](CCCN=C(N)N)C(=O)N[C@@H](Cc1c[nH]c2ccccc12)C(=O)N[C@@H](Cc1c[nH]c2ccccc12)C(=O)N[C@@H](Cc1c[nH]c2ccccc12)C(=O)N[C@@H](Cc1ccccc1)C(=O)N[C@@H](CCCN=C(N)N)C(=O)O [KWKRWWWFR]
≥ 156										CC[C@H](C)[C@H](NC(=O)[C@H](CCCN=C(N)N)NC(=O)[C@@H](NC(=O)[C@H](CC(N)=O)NC(=O)[C@H](CCCN=C(N)N)NC(=O)[C@H](CCC(N)=O)NC(=O)[C@H](Cc1c[nH]c2ccccc12)NC(=O)[C@H](Cc1ccccc1)NC(=O)[C@@H](N)CCCN=C(N)N)[C@@H](C)CC)C(=O)N[C@@H](CCCN=C(N)N)C(=O)N[C@@H](CCCN=C(N)N)C(N)=O [RFWQRNIRIRR]
	≥ 89.3	≥ 44.6	≥ 44.6	≥ 89.3	≥ 89.3	≥ 89.3	44.6 (≈ 64 µg/mL)	22.3 (≈ 32 µg/mL)		CC[C@H](C)[C@H](NC(=O)[C@@H](N)CCCN=C(N)N)C(=O)N[C@@H](Cc1c[nH]c2ccccc12)C(=O)N[C@@H](CCCCN)C(=O)N[C@@H](CCCN=C(N)N)C(=O)N[C@@H](Cc1c[nH]c2ccccc12)C(=O)N[C@@H](Cc1c[nH]c2ccccc12)C(=O)N[C@@H](Cc1ccccc1)C(=O)N[C@@H](CCCN=C(N)N)C(=O)O [RIWKRWWFR]
									MIC [10]: 1.56 µM (≈ 2.06 µg/mL); MIC [11]: 1.56 µM (≈ 2.06 µg/mL); MIC [12]: 0.39 µM (≈ 0.516 µg/mL)	CC[C@H](C)[C@H](NC(=O)[C@H](CC(C)C)NC(=O)[C@H](CO)NC(=O)[C@H](CC(C)C)NC(=O)[C@H](CC(C)C)NC(=O)[C@@H](N)CO)C(=O)N[C@@H](CCCN=C(N)N)C(=O)N[C@@H](CCCCN)C(=O)N[C@@H](Cc1ccccc1)C(=O)N[C@@H](Cc1ccccc1)C(=O)N[C@H](C(N)=O)[C@@H](C)O [SLLSLIRKFFT]
